Experimental data: publication PMC6467689 (ACS infectious diseases, 2018)

Assays:
MukB [1] = biological target: T1, MukB (Escherichia coli, UniProt P22523); experiment: magnetic bead DNA bridging pull-down; assay type: biochemical; conditions: 20 mM HEPES pH 7.7, 50 mM NaCl, 2 mM MgCl2, 5% glycerol, 1 mM DTT
MukB [2] = biological target: T1, MukB; experiment: SPR; assay type: binding; conditions: 25 uM compound, 20 mM HEPES-KOH pH 7.0, 50 mM NaCl, 0.5% DMSO

T1 sequence (P22523 whole entry): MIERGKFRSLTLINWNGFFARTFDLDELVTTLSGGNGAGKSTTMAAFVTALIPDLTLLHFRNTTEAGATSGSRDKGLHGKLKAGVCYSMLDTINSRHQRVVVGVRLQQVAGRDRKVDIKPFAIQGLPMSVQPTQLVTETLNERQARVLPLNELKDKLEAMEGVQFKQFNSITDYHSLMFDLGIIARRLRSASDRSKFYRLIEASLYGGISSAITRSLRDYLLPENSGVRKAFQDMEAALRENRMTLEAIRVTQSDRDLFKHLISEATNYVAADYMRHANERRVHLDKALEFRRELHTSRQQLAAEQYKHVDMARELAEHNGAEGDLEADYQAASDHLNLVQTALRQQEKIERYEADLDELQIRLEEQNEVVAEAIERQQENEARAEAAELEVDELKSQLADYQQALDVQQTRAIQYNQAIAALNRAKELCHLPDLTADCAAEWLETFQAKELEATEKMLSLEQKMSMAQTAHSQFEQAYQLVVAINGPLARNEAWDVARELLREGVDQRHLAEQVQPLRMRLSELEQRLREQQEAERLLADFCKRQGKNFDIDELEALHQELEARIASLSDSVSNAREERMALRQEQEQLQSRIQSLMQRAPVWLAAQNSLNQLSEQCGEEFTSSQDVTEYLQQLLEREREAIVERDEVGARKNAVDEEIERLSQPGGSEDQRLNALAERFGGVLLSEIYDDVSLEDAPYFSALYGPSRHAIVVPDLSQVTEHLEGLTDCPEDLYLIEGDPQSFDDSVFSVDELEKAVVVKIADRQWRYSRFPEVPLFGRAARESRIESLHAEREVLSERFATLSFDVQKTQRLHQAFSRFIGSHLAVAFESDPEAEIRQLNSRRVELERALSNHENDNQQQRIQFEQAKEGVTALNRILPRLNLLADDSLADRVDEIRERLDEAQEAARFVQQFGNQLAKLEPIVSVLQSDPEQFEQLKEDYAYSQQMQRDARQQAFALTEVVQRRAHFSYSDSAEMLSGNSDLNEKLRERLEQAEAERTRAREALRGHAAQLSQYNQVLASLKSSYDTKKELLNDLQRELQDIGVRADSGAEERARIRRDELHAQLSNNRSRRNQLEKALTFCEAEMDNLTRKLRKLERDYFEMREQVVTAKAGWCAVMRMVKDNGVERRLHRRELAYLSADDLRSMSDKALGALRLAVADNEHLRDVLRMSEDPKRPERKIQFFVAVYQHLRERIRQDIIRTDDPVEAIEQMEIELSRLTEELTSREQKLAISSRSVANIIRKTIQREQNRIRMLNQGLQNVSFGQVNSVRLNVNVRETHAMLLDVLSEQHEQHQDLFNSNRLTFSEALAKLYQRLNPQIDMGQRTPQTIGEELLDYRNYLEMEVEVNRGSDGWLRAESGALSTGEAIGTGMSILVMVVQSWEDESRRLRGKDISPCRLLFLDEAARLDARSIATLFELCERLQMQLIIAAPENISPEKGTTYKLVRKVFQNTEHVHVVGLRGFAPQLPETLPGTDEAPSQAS

Row | Structure (SMILES) | inhibition of DNA bridging (MukB [1]) | SPR (Biacore, MukB immobilised on CM5 chip) (MukB [2])
1 | Cc1c2ccncc2c(C)c2c1[nH]c1ccccc12 [NSC71795] | Michellamine B, NSC71795 and, to a smaller degree, NSC45383, inhibit MukB mediated DNA bridging | A much weaker binding could be detected for NSC71795 (ellipticine) and NSC45383 (streptonigrin)
2 | COc1cc(C)cc2c(-c3c(O)cc(O)c4c3C[C@H](C)N[C@H]4C)cc(-c3cc(-c4c(O)cc(O)c5c4C[C@H](C)N[C@H]5C)c4cc(C)cc(OC)c4c3O)c(O)c12 [NSC661755, Michellamine B] | Michellamine B, NSC71795 and, to a smaller degree, NSC45383, inhibit MukB mediated DNA bridging | 
3 | COC1=C(N)C(=O)c2nc(-c3nc(C(=O)O)c(C)c(-c4ccc(OC)c(OC)c4O)c3N)ccc2C1=O [NSC45383] | Michellamine B, NSC71795 and, to a smaller degree, NSC45383, inhibit MukB mediated DNA bridging | A much weaker binding could be detected for NSC71795 (ellipticine) and NSC45383 (streptonigrin)
